Experimental data taken from PMC10323144, “Garbage in, garbage out: how reliable training data improved a virtual screening approach against SARS-CoV-2 MPro” (Frontiers in Pharmacology, 2023).
Like-named read-outs stand apart in the source and are kept apart here. Square brackets hold non-standard residues; d marks the D form. Peptide text beside a SMILES is read from it. * marks the point of attachment. NMeF = CN[CH](Cc1ccccc1)C(=O)O; NMeA = CN[CH](C)C(=O)O; Sar = CNCC(=O)O; tBu = CC(C)(C)*

Legend:
MPro = conditions: compiled from peer-reviewed sources (287 compounds) ref the 18 original articles; cited from earlier work
SARS-CoV-2 MPro = SARS-CoV-2 MPro (Severe acute respiratory syndrome coronavirus 2, UniProt P0DTD1); experiment: MPro activity assay (de-quenching of Edans fluorescence on cleavage of a Dabcyl/Edans peptide); type: biochemical; conditions: for activity at 10 µM: read-out: % activity MPro; for Class (MPro activity class): in-house acquired data, internal screening under standardized conditions (128 compounds); for activity at 25 µM: read-out: MPro activity (%); for IC50: 60 min pre-incubation, 5 μM substrate
[1] = system: SARS-CoV-2 (βCoV/KOR/KCDC03/2020); experiment: microbe, parasite or virus in culture; type: cell-based
in vitro = conditions: African green monkey
[2] = Severe acute respiratory syndrome coronavirus 2, Vero, 24 h

Compound | Class (MPro activity class) (SARS-CoV-2 MPro) | also measured
O=CC(CC1CCNC1=O)NC(=O)C(CC1CCCCC1)NC(=O)c1cc2ccccc2[nH]1 (centres unmarked) [11a] | – | Class (MPro activity class) (MPro): 1 (Compounds with IC50 < 10 µM or with a percentage of enzyme inhibition >50% at 10 µM were labelled as ACTIVE); activity at 10 µM (SARS-CoV-2 MPro): 104 ± 1.1%
CC(C)(C)OC(=O)Nc1cccn(C(CC2CCCCC2)C(=O)NC(CC2CCNC2=O)C(=O)C(=O)NC2CC2)c1=O (centres unmarked) [compound 13a] | – | Class (MPro activity class) (MPro): 1 (Compounds with IC50 < 10 µM or with a percentage of enzyme inhibition >50% at 10 µM were labelled as ACTIVE); activity at 10 µM (SARS-CoV-2 MPro): 98.6 ± 0.9%
O=S(=O)(C=Cc1ccc2no[n+]([O-])c2c1)c1ccc(Cl)cc1 [COV19499] | 1 (Compounds with IC50 < 10 µM or with a percentage of enzyme inhibition >50% at 10 µM were labelled as ACTIVE) | –
CCOC(=O)c1ncc(-n2sc3ccccc3c2=O)s1 [COV19019] | 1 (Compounds with IC50 < 10 µM or with a percentage of enzyme inhibition >50% at 10 µM were labelled as ACTIVE) | –
CC(=NNC(N)=[Se])c1cc2ccccc2oc1=O [COV19145] | 0 (compounds with IC50 > 20 μM, percentage inhibition <80% at 20 µM or 50 μM, or percentage enzyme inhibition <50% at 10 µM were labelled as INACTIVE) | –
[O-][S+](/C=C/c1ccc2nonc2c1)c1ccccc1 (centres unmarked) [16d] | – | activity at 25 µM (SARS-CoV-2 MPro): 71.9 ± 11%
O=C(Cn1ccnc1NC(=O)c1ccccc1I)NCc1ccccc1 [COV19022] | 0 (compounds with IC50 > 20 μM, percentage inhibition <80% at 20 µM or 50 μM, or percentage enzyme inhibition <50% at 10 µM were labelled as INACTIVE) | –
CC(OC(C)(C)C)C1NC(=O)CN(C)C(=O)C(Cc2ccccc2)NC(=O)CN(C)C1=O (centres unmarked) [vCOV194214] (cyclo([Sar]F[Sar]T(tBu)); configuration not given here) | 0 (compounds with IC50 > 20 μM, percentage inhibition <80% at 20 µM or 50 μM, or percentage enzyme inhibition <50% at 10 µM were labelled as INACTIVE) | –
O=c1c2ccccc2sn1-c1ccc(C(F)(F)F)cc1 [COV19012] | 1 (Compounds with IC50 < 10 µM or with a percentage of enzyme inhibition >50% at 10 µM were labelled as ACTIVE) | –
CC1C(=O)NC(Cc2ccccc2)C(=O)N(C)C(Cc2ccccc2)C(=O)NCC(=O)N1C (centres unmarked) [COV19080] (cyclo(G[NMeA]F[NMeF]); configuration not given here) | 0 (compounds with IC50 > 20 μM, percentage inhibition <80% at 20 µM or 50 μM, or percentage enzyme inhibition <50% at 10 µM were labelled as INACTIVE) | –
COc1ccc(C2C(C(=O)c3ccc4c(c3)OCCO4)=C(O)C(=O)N2c2nc3ccc(Cl)cc3s2)cc1 (centres unmarked) [AD84] | 0 (compounds with IC50 > 20 μM, percentage inhibition <80% at 20 µM or 50 μM, or percentage enzyme inhibition <50% at 10 µM were labelled as INACTIVE) | –
NC(=O)c1ccccc1I [COV19035] | 0 (compounds with IC50 > 20 μM, percentage inhibition <80% at 20 µM or 50 μM, or percentage enzyme inhibition <50% at 10 µM were labelled as INACTIVE) | –
Cc1ccc(NC(=O)c2ccccc2I)cc1 [COV19025] | 0 (compounds with IC50 > 20 μM, percentage inhibition <80% at 20 µM or 50 μM, or percentage enzyme inhibition <50% at 10 µM were labelled as INACTIVE) | –
Nc1ncc(C(=O)N(Cc2ccccc2)Cc2ccccc2)o1 [ZVR-102] | 0 (compounds with IC50 > 20 μM, percentage inhibition <80% at 20 µM or 50 μM, or percentage enzyme inhibition <50% at 10 µM were labelled as INACTIVE) | –
O=S(=O)(O)c1ccc(/C=N/N=c2\scc(-c3cs/c(=N\N=C\c4ccc(S(=O)(=O)O)o4)n3-c3ccccc3)n2-c2ccccc2)o1 [5a] | – | activity at 25 µM (SARS-CoV-2 MPro): 65.6 ± 10.9%
O=c1c2ccccc2sn1-c1ccc(Cl)cc1 [COV19016] | 1 (Compounds with IC50 < 10 µM or with a percentage of enzyme inhibition >50% at 10 µM were labelled as ACTIVE) | –
O=C(OC[C@H]1O[C@@H](OC(=O)c2ccccc2)[C@H](OC(=O)c2ccccc2)[C@@H](OC(=O)c2ccccc2)[C@@H]1OC(=O)c1ccccc1)c1ccccc1 [8a] | – | activity at 25 µM (SARS-CoV-2 MPro): 67 ± 2.5%
O=C(Cn1ccnc1-n1sc2ccccc2c1=O)NCc1ccccc1 [COV19023] | 0 (compounds with IC50 > 20 μM, percentage inhibition <80% at 20 µM or 50 μM, or percentage enzyme inhibition <50% at 10 µM were labelled as INACTIVE) | –
Cc1cccc(Cl)c1-n1sc2ccccc2c1=O [COV19011] | 1 (Compounds with IC50 < 10 µM or with a percentage of enzyme inhibition >50% at 10 µM were labelled as ACTIVE) | –
O=C(Nc1nc2c(s1)CC(NC(=O)c1cc(Br)c(Br)[nH]1)CC2)c1c[nH]cn1 (centres unmarked) [Cpd 47] | 0 (compounds with IC50 > 20 μM, percentage inhibition <80% at 20 µM or 50 μM, or percentage enzyme inhibition <50% at 10 µM were labelled as INACTIVE) | –
O=C(Nc1ccc(C(F)(F)F)cc1)c1ccccc1I [COV19037] | 0 (compounds with IC50 > 20 μM, percentage inhibition <80% at 20 µM or 50 μM, or percentage enzyme inhibition <50% at 10 µM were labelled as INACTIVE) | –
COc1ccc(C2C(C(=O)c3ccc(OC)c(OC)c3)=C(O)C(=O)N2c2nc3ccc(Cl)cc3s2)cc1 (centres unmarked) [ADKPN163] | 0 (compounds with IC50 > 20 μM, percentage inhibition <80% at 20 µM or 50 μM, or percentage enzyme inhibition <50% at 10 µM were labelled as INACTIVE) | –

Compound | Class (MPro activity class) (SARS-CoV-2 MPro) | also measured
O=[N+]([O-])c1ccc(CS(=O)(=O)/C=C/c2ccc3nonc3c2)cc1 [17d] | – | activity at 25 µM (SARS-CoV-2 MPro): 116 ± 15%
O=C(/C=C/c1ccc2ccccc2c1)c1ccc2ccccc2c1O [26d] | – | inhibition at 25 µM (SARS-CoV-2 MPro; read-out: MPro inhibition): 45%
O=C(/C=C/c1ccc2ccccc2c1)c1c(O)ccc2ccccc12 [27d] | – | IC50 (SARS-CoV-2 MPro): 5.8 µM; antiviral activity (in words) [1]: lacked antiviral activity
Cc1[nH]c(C(=O)Nc2ccc(C(=O)O)cc2)c(Cl)c1Cl [UL-NNS 38-1] | 0 (compounds with IC50 > 20 μM, percentage inhibition <80% at 20 µM or 50 μM, or percentage enzyme inhibition <50% at 10 µM were labelled as INACTIVE) | –
COc1ccc(C(=O)C2=C(O)C(=O)N(c3nc4ccc(Cl)cc4s3)C2c2ccc(F)cc2)cc1OC (centres unmarked) [1a] | – | IC50 (SARS-CoV-2 MPro): < 25 µM; activity at 25 µM (SARS-CoV-2 MPro): 34.8 ± 3.4%
CC1C(=O)NC(Cc2ccc(OC(C)(C)C)cc2)C(=O)NCC(=O)N(C)C(Cc2ccccc2)C(=O)N1C (centres unmarked) [COV19081] (cyclo(G[NMeF][NMeA]Y(tBu)); configuration not given here) | 0 (compounds with IC50 > 20 μM, percentage inhibition <80% at 20 µM or 50 μM, or percentage enzyme inhibition <50% at 10 µM were labelled as INACTIVE) | –
COc1ccc(C2C(C(=O)c3ccc4c(c3)OCCO4)=C(O)C(=O)N2c2nc3ccc(C)cc3s2)cc1OC (centres unmarked) [ADRMC153] | 0 (compounds with IC50 > 20 μM, percentage inhibition <80% at 20 µM or 50 μM, or percentage enzyme inhibition <50% at 10 µM were labelled as INACTIVE) | –
COc1cc(C2C(C(=O)c3ccc4c(c3)OCCO4)=C(O)C(=O)N2c2nc3ccc(C)cc3s2)ccc1O (centres unmarked) [ADRMC152] | 0 (compounds with IC50 > 20 μM, percentage inhibition <80% at 20 µM or 50 μM, or percentage enzyme inhibition <50% at 10 µM were labelled as INACTIVE) | –
CC(=NNC(=S)Nc1ccccc1)c1c(O)c2ccccc2oc1=O [COV19143] | 0 (compounds with IC50 > 20 μM, percentage inhibition <80% at 20 µM or 50 μM, or percentage enzyme inhibition <50% at 10 µM were labelled as INACTIVE) | –
CC(=NNC(=S)Nc1ccccc1)c1cc2ccccc2oc1=O [COV19139] | 0 (compounds with IC50 > 20 μM, percentage inhibition <80% at 20 µM or 50 μM, or percentage enzyme inhibition <50% at 10 µM were labelled as INACTIVE) | –
O=S(=O)(C=Cc1ccc2no[n+]([O-])c2c1)c1ccc(F)cc1 [COV19500] | 1 (Compounds with IC50 < 10 µM or with a percentage of enzyme inhibition >50% at 10 µM were labelled as ACTIVE) | –
[O-][n+]1onc2ccc(/C=C\[S+]([O-])c3ccccc3)cc21 (centres unmarked) [12d] | – | activity at 25 µM (SARS-CoV-2 MPro): 56.2 ± 0.5%
Nc1cccc(C(=O)Nc2nc3c(s2)CC(NC(=O)c2cc(Br)c(Br)[nH]2)CC3)c1 (centres unmarked) [Cpd 46] | 0 (compounds with IC50 > 20 μM, percentage inhibition <80% at 20 µM or 50 μM, or percentage enzyme inhibition <50% at 10 µM were labelled as INACTIVE) | –
Cc1ccc(S(=O)(=O)/C=C/c2ccc3no[n+]([O-])c3c2)cc1 [20d] | – | activity at 25 µM (SARS-CoV-2 MPro): 62.6 ± 4.9%
Cc1ccc([S+]([O-])/C=C\c2ccc3no[n+]([O-])c3c2)cc1 (centres unmarked) [14d] | – | activity at 25 µM (SARS-CoV-2 MPro): 73.8 ± 4.4%
COc1cccc(-n2c(NCCN3CCNCC3)nc3sc4c(c3c2=O)CCCC4)c1 [Cpd 52] | 0 (compounds with IC50 > 20 μM, percentage inhibition <80% at 20 µM or 50 μM, or percentage enzyme inhibition <50% at 10 µM were labelled as INACTIVE) | –
CCN(CC)CCCC(C)Nc1ccnc2cc(Cl)ccc12 (centres unmarked) [Chloroquine] | – | CC50 (in vitro): > 150 µM; Class (MPro activity class) (MPro): 0 (compounds with IC50 > 20 μM, percentage inhibition <80% at 20 µM or 50 μM, or percentage enzyme inhibition <50% at 10 µM were labelled as INACTIVE); IC50 [1]: 17.8 µM; IC50 [1, 2]: 18 µM
CN(CCc1ccc(Cl)cc1)C(=S)c1ccccc1I [COV19183] | 0 (compounds with IC50 > 20 μM, percentage inhibition <80% at 20 µM or 50 μM, or percentage enzyme inhibition <50% at 10 µM were labelled as INACTIVE) | –
Cc1cccc(C)c1OCC(=O)N[C@@H](Cc1ccccc1)[C@@H](O)C[C@H](Cc1ccccc1)NC(=O)[C@H](C(C)C)N1CCCNC1=O [Lopinavir] | – | CC50 (in vitro): > 150 µM; Class (MPro activity class) (MPro): 0 (compounds with IC50 > 20 μM, percentage inhibition <80% at 20 µM or 50 μM, or percentage enzyme inhibition <50% at 10 µM were labelled as INACTIVE); IC50 [1]: 21.5 µM; IC50 [1, 2]: 22 µM
COc1ccc2nc(N3C(=O)C(O)=C(C(=O)c4ccc5c(c4)OCCO5)C3c3ccc(OC)c(OC)c3)sc2c1 (centres unmarked) [ADRMC155] | 0 (compounds with IC50 > 20 μM, percentage inhibition <80% at 20 µM or 50 μM, or percentage enzyme inhibition <50% at 10 µM were labelled as INACTIVE) | –
CC1NC(=O)C(Cc2ccccc2)N(C)C(=O)CNC(=O)C(Cc2ccccc2)N(C)C1=O (centres unmarked) [COV19097] (cyclo(G[NMeF]A[NMeF]); configuration not given here) | 0 (compounds with IC50 > 20 μM, percentage inhibition <80% at 20 µM or 50 μM, or percentage enzyme inhibition <50% at 10 µM were labelled as INACTIVE) | –
